Values after ≈ are worked out from the molar mass of the structure shown. Values joined by “and” are separate entries in the source; they are usually repeats but may differ in a detail not shown here. Identical values can stand only once.
Columns and labels:
[1] = tested on: Candida albicans; experiment: Antifungal activity against Candida albicans incubated for 18 to 24 hrs by CLSI method; type: functional; conditions: time 18-24 hrs
[2] = tested on: Splenocyte; experiment: Immunomodulatory activity in Swiss albino mouse splenocytes assessed as cell viability at 10 uM by measuring inhibition of stimulation index incubated for 72 hrs in presence of mitogenic stimulus phytohaemagglutinin by MTT assay relative to indomethacin; type: functional; conditions: read-out: Activity
[3] = tested on: Salmonella typhimurium; experiment: Antibacterial activity against Salmonella typhimurium ATCC 19430 incubated for 18 hrs by agar dilution assay; type: functional, Salmonella enterica subsp. enterica serovar Typhimurium; conditions: Salmonella enterica
[4] = tested on: Streptococcus pyogenes; experiment: Antibacterial activity against Streptococcus pyogenes ATCC 19615 incubated for 18 hrs by agar dilution method; type: functional
[5] = tested on: Rattus norvegicus; experiment: Anti-inflammatory activity in Wistar rat assessed as inhibition of carrageenan-induced paw edema at 10 mg/kg, ip pretreated for 1 hr followed by carrageenan challenge and measured after 24 hr relative to control (reference value: 0.00 +/-0.3 %); type: functional; conditions: time 25 hrs
[6] = tested on: Rattus norvegicus; experiment: Anti-inflammatory activity in Wistar rat assessed as inhibition of carrageenan-induced paw edema at 10 mg/kg, ip pretreated for 1 hr followed by carrageenan challenge and measured after 4 hr relative to control (reference value: 0.00 +/-0.4 %); type: functional; conditions: time 5 hrs
[7] = tested on: Rattus norvegicus; experiment: Anti-inflammatory activity in Wistar rat assessed as inhibition of carrageenan-induced paw edema at 10 mg/kg, ip pretreated for 1 hr followed by carrageenan challenge and measured after 3 hr relative to control (reference value: 0.00 +/-0.1 %); type: functional; conditions: time 4 hrs
[8] = tested on: Rattus norvegicus; experiment: Anti-inflammatory activity in Wistar rat assessed as inhibition of carrageenan-induced paw edema at 10 mg/kg, ip pretreated for 1 hr followed by carrageenan challenge and measured after 4 hr relative to indomethacin; type: functional; conditions: time 5 hrs
[9] = tested on: Rattus norvegicus; experiment: Antiinflammatory activity in Wistar rat model of carrageenan-induced paw edema assessed as reduction in thickness of paw edema at 10 mg/kg, ip pretreated for 1 hr followed by carrageenan challenge and measured after 2 hrs (reference value: 2.06 +/-0.09 mm); type: functional; conditions: time 3 hrs
[10] = tested on: Rattus norvegicus; experiment: Antiinflammatory activity in Wistar rat model of carrageenan-induced paw edema assessed as reduction in thickness of paw edema at 10 mg/kg, ip pretreated for 1 hr followed by carrageenan challenge and measured after 4 hrs (reference value: 1.40 +/-0.10 mm); type: functional; conditions: time 5 hrs
[11] = tested on: Rattus norvegicus; experiment: Antiinflammatory activity in Wistar rat model of carrageenan-induced paw edema assessed as reduction in thickness of paw edema at 10 mg/kg, ip pretreated for 1 hr followed by carrageenan challenge and measured after 24 hrs (reference value: 0.83 +/-0.08 mm); type: functional; conditions: time 25 hrs
[12] = tested on: Pseudomonas aeruginosa; experiment: Antibacterial activity against Pseudomonas aeruginosa ATCC 27853 incubated for 18 hrs by agar dilution assay; type: functional
[13] = tested on: Rattus norvegicus; experiment: Anti-inflammatory activity in Wistar rat assessed as inhibition of carrageenan-induced paw edema at 10 mg/kg, ip pretreated for 1 hr followed by carrageenan challenge and measured after 1 hr relative to control (reference value: 0.00 +/-0.02 %); type: functional; conditions: time 2 hrs
[14] = tested on: Rattus norvegicus; experiment: Antiinflammatory activity in Wistar rat model of carrageenan-induced paw edema assessed as reduction in thickness of paw edema at 10 mg/kg, ip pretreated for 1 hr followed by carrageenan challenge and measured after 1 hr (reference value: 2.41 +/-0.05 mm); type: functional; conditions: time 1 hr after carrageenan
[15] = tested on: Rattus norvegicus; experiment: Anti-inflammatory activity in Wistar rat assessed as inhibition of carrageenan-induced paw edema at 10 mg/kg, ip pretreated for 1 hr followed by carrageenan challenge and measured after 2 hr relative to control (reference value: 0.00 +/-0.03 %); type: functional; conditions: time 3 hrs
[16] = tested on: Splenocyte; experiment: Immunomodulatory activity in Swiss albino mouse splenocytes assessed as cell viability at 10 uM by measuring stimulation index incubated for 72 hrs in presence of mitogenic stimulus phytohaemagglutinin by MTT assay (reference value: 1.00 +/- 0.24); type: functional
[17] = tested on: Rattus norvegicus; experiment: Antiinflammatory activity in Wistar rat model of carrageenan-induced paw edema assessed as reduction in thickness of paw edema at 10 mg/kg, ip pretreated for 1 hr followed by carrageenan challenge and measured after 3 hrs (reference value: 1.79 +/-0.07 mm); type: functional; conditions: time 4 hrs
[18] = tested on: Staphylococcus aureus; experiment: Antibacterial activity against Staphylococcus aureus ATCC 25923 incubated for 18 hrs by agar dilution method; type: functional
[19] = tested on: Peritoneal macrophage; experiment: Antiinflammatory activity in […] mouse Peritoneal macrophages assessed as reduction in LPS-induced NO production by measuring reduction in stimulation index at 10 uM preincubated for 1 hr followed by LPS stimulation measured after 24 hrs by Griess method (reference value: 27.31 +/- 2.56 uM); type: functional; conditions: time 25 hrs
[20] = tested on: Peritoneal macrophage; experiment: Antiinflammatory activity in […] mouse Peritoneal macrophages assessed as inhibition of LPS-induced NO production at 10 uM preincubated for 1 hr followed by LPS stimulation measured after 24 hrs by Griess method relative to control (reference value: 0.0 %); type: functional; parameters: scale not given: the % may be the effect or the level left; conditions: time 25 hrs

Row | SMILES | MIC [1] | viability at 10 µM [2] | MIC [3] | MIC [4] | inhibition in vivo at 10 mg/kg [5] | inhibition in vivo at 10 mg/kg [6] | inhibition in vivo at 10 mg/kg [7] | inhibition in vivo at 10 mg/kg [8] | Activity [9] | Activity [10] | Activity [11] | MIC [12] | inhibition in vivo at 10 mg/kg [13] | Activity [14] | inhibition in vivo at 10 mg/kg [15] | Activity_index [16] | Activity [17] | MIC [18] | Activity [19] | Activity [20]
1 | C[C@@H]1[C@H](O)[C@@H](C)/C=C/C=C/C=C/C=C/C=C/C=C/C=C/[C@H](O[C@@H]2O[C@H](C)[C@@H](O)[C@H](N)[C@@H]2O)C[C@@H]2O[C@](O)(C[C@@H](O)C[C@@H](O)[C@H](O)CC[C@@H](O)C[C@@H](O)CC(=O)O[C@H]1C)C[C@H](O)[C@H]2C(=O)O [AMPHOTERICIN B] | 0.39 µg/mL and 0.422 µM | – | – | – | – | – | – | – | – | – | – | – | – | – | – | – | – | – | – | –
2 | COc1cc(/C=C/C(=O)/C=C(O)/C=C/c2ccc(OC(=O)[C@H](Cc3ccccc3)NC(=O)OC(C)(C)C)c(OC)c2)ccc1OC(=O)[C@H](Cc1ccccc1)NC(=O)OC(C)(C)C | 1 µg/mL and 1.16 µM | 47.2% | 0.25 µg/mL and 0.29 µM | 0.125 µg/mL and 0.145 µM | 51% | 59% | 53% | 68% | 1.16 mm | 0.58 mm | 0.41 mm | 1 µg/mL and 1.16 µM | 39% | 1.47 mm | 44% | 2.56 | 0.85 mm | 0.25 µg/mL and 0.29 µM | – | –
3 | CCn1cc(C(=O)O)c(=O)c2cc(F)c(N3CCNCC3)cc21 [NORFLOXACIN] | – | – | 2.4 µg/mL (≈ 7.52 µM) | – | – | – | – | – | – | – | – | 4.8 µg/mL and 15000 µM | – | – | – | – | – | – | – | –
4 | COc1cc(/C=C/C(=O)/C=C(O)/C=C/c2ccc(OC(=O)[C@H](C)NC(=O)OCc3ccccc3)c(OC)c2)ccc1OC(=O)[C@H](C)NC(=O)OCc1ccccc1 | 2 µg/mL and 2.57 µM | 44.9% | 0.5 µg/mL and 0.642 µM | 0.125 µg/mL and 0.161 µM | 0% | 12% | 22% | 14% | 1.59 mm | 1.23 mm | 0.83 mm | 2 µg/mL and 2.57 µM | 56% | 1.05 mm | 23% | 2.7 | 1.4 mm | 0.25 µg/mL and 0.321 µM | 24.89 µM | 8.86%
5 | COc1cc(/C=C/C(=O)/C=C(O)/C=C/c2ccc(OC(=O)[C@@H](NC(=O)OC(C)(C)C)C(C)C)c(OC)c2)ccc1OC(=O)[C@@H](NC(=O)OC(C)(C)C)C(C)C | 1 µg/mL and 1.3 µM | 65.6% | 0.25 µg/mL and 0.326 µM | 2 µg/mL and 2.61 µM | 30% | 43% | 25% | 49% | 1.57 mm | 0.8 mm | 0.58 mm | 2 µg/mL and 2.61 µM | 13% | 2.09 mm | 24% | 1.84 | 1.34 mm | 0.25 µg/mL and 0.326 µM | 19.29 µM | 29.35%
6 | COc1cc(/C=C/C(=O)/C=C(O)/C=C/c2ccc(OC(=O)[C@H](C)NC(=O)OC(C)(C)C)c(OC)c2)ccc1OC(=O)[C@H](C)NC(=O)OC(C)(C)C | 1 µg/mL and 1.41 µM | 44.6% | 0.125 µg/mL and 0.176 µM | 0.25 µg/mL and 0.352 µM | 5% | 28% | 20% | 32% | 1.84 mm | 1.04 mm | 0.79 mm | 1 µg/mL and 1.41 µM | 6% | 2.26 mm | 11% | 2.71 | 1.44 mm | 0.125 µg/mL and 0.176 µM | 21.3 µM | 22.02%
7 | COc1cc(/C=C/C(=O)/C=C(O)/C=C/c2ccc(OC(=O)[C@H](CCC(N)=O)NC(=O)OCc3ccccc3)c(OC)c2)ccc1OC(=O)[C@H](CCC(N)=O)NC(=O)OCc1ccccc1 | 0.5 µg/mL and 0.56 µM | 51.1% | 0.5 µg/mL and 0.56 µM | 0.125 µg/mL and 0.14 µM | 4% | 44% | 45% | 51% | 1.09 mm | 0.78 mm | 0.8 mm | 1 µg/mL and 1.12 µM | 51% | 1.18 mm | 47% | 2.37 | 0.99 mm | 0.5 µg/mL and 0.56 µM | – | –
8 | COc1cc(/C=C/C(=O)/C=C(O)/C=C/c2ccc(OC(=O)[C@H](CC(C)C)NC(=O)OCc3ccccc3)c(OC)c2)ccc1OC(=O)[C@H](CC(C)C)NC(=O)OCc1ccccc1 | 0.5 µg/mL and 0.579 µM | 42.8% | 0.25 µg/mL and 0.29 µM | 0.125 µg/mL and 0.145 µM | 1% | 11% | 10% | 13% | 1.85 mm | 1.25 mm | 0.82 mm | 0.125 µg/mL and 0.145 µM | 34% | 1.59 mm | 10% | 2.83 | 1.61 mm | 0.125 µg/mL and 0.145 µM | 26.06 µM | 4.57%
9 | O=C(O)c1cn(C2CC2)c2cc(N3CCNCC3)c(F)cc2c1=O [CIPROFLOXACIN] | – | – | 2.4 µg/mL (≈ 7.24 µM) | – | – | – | – | – | – | – | – | 4.8 µg/mL (≈ 14.5 µM) | – | – | – | – | – | – | – | –
